Patent US20210198269A1, “INHIBITORS OF GLUCOSE TRANSPORTERS (GLUTs)” (LEAD DISCOVERY CENTER GMBH, priority 2018, published 2021)

Experiments:
Assay type in all cases: cell-based
GLUT4 = target: T1, GLUT4 (Homo sapiens, UniProt P14672); assay: GLUT4 transporter activity assay (2-DG uptake) in CHO-hGLUT4 cells; details: CHO-hGLUT4 cell line; read-out: GLUT4 inhibitory activity (IC50)
T1 sequence (P14672 1-509): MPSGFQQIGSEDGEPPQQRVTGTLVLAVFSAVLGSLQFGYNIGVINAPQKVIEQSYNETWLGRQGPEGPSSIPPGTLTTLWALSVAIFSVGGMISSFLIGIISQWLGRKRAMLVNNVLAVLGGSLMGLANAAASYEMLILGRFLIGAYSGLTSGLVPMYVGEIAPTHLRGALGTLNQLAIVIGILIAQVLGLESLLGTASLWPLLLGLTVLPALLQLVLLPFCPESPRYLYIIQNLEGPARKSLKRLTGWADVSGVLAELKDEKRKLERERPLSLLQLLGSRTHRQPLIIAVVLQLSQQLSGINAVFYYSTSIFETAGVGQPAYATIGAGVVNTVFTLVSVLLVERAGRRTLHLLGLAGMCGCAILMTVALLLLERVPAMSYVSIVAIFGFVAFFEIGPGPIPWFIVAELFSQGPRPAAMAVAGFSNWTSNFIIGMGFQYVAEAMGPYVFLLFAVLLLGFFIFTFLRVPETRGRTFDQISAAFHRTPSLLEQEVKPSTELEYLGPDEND
Experimental: CHOK1-SLC2A4 cells were generated by transfection of CHOK1 cells with pCMV6-Entry-GLUT4 (Origene #SC125240) using Lipofectamin2000 according to the supplier's instructions. Briefly, 1.5E5 cells/well CHOK1 cells were seeded in 6-well cell culture plates. After overnight incubation, DNA-lipid complexes (2 μg plasmid DNA, DNA:lipid ratio 1:10) were prepared in OptiMEM and then added to the cells. After 5 days incubation, 800 μg G418 was added to the culture medium to generate a stable polyclone. For monoclone selection, single cells were re-plated in 96-well plates, expanded and selected by transgene overexpression and functional performance.
(§1) GLUT 1, 2, 3 and 4 Transporter Activity Assays
(§2) Assays were based on the specificity assays reported by Kapoor et al., Proceedings of the National Academy of Sciences 2016, 113 (17) 4711-4716. For GLUT1, GLUT2, GLUT3 and GLUT4 specificity testing DLD1, CHO-hGLUT2, DLD-1-GLUT1−/− and CHO-hGLUT4 cell lines were used.
(§3) Assay protocols for 2-deoxy-Glucose (2-DG) Uptake Assay with DLD1 or DLD1-Glut1(−/−) cells or 7,000 CHOK1-SLC2A4 cells lines:
(§4) 14,000 DLD1 or DLD1-Glut1(−/−) cells or 7,000 CHOK1-SLC2A4 cells were seeded in black, clear bottom 384-well plates in glucose- and phenolred-free RPMI1640 medium supplemented with 1% FCS and 2 mM L-glutamine and allowed to attach overnight. Next day, cells were washed and incubated with compounds or DMSO and 1 mM 2-DG in glucose- and phenolred-free RPMI1640 medium for 30 min. Cells were then washed and lysed in 0.06 M HCl and 1% CHAPS for 15 min at 65° C. The amount of 2-DG in the lysate was determined by means of enzyme-coupled assay. For this 16 U/mL glucose-6-phosphate dehydrogenase, 0.2 U/mL diaphorase, 0.1 mM NADP^+ and 10 μM resazurin were added to the lysates. Resorufin fluorescence was determined as a measure of 2-DG uptake at ex/em 535/590 nm with a Victor Multilabel plate reader (Perkin Elmer). Blank values were subtracted from all readings and values were normalized to the DMSO control.

GLUT3 = target: T2, GLUT3 (Homo sapiens, UniProt P11169); assay: GLUT3 transporter activity assay (2-DG uptake) in DLD-1-GLUT1-/- cells; details: DLD-1-GLUT1-/- cell line; read-out: GLUT3 inhibitory activity (IC50)
T2 construct: host or cells: DLD-1-GLUT1(-/-) cells
T2 sequence (P11169 1-496): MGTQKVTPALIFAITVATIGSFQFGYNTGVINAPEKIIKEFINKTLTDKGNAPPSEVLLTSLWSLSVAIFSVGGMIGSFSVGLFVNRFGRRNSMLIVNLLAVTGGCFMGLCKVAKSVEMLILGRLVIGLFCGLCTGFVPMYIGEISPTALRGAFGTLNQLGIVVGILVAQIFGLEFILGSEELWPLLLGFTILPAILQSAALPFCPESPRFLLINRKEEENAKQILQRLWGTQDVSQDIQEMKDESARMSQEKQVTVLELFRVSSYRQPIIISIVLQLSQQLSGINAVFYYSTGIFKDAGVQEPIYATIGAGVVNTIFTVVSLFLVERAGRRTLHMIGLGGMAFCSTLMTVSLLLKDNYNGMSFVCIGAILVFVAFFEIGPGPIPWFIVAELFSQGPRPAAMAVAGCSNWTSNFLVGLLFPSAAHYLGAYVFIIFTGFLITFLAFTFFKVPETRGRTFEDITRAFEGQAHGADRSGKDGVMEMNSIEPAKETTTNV
Source text: as §1, §2, §3, §4

HCT116 cells = assay: 2-Deoxy-Glucose (2-DG) uptake assay in HCT116 cells; details: Homo sapiens, HCT-116, 0.5 h, 1 mM 2-DG, 30 min, read-out: IC50 determined for the inhibition of 2-DG uptake in HCT116 cells
Experimental: The 2-DG uptake assay was carried out as described by Yamamoto N. et al. with slight modifications ([…]). Briefly, 40,000 HCT116 or CHO cells were seeded in black, clear bottom 96-well plates and allowed to attach overnight. Cells were incubated with compounds or DMSO and 1 mM 2-DG in glucose-free KRB buffer (20 mM HEPES, 5 mM KH2PO4, 1 mM MgSO4, 1 mM CaCl2), 136 mM NaCl, 0.1% BSA, pH 7.4) for 30 min. In the case of GLUT-4 transfected cells, Insulin (100 μg/mL) was added to the buffer. Cells were then washed and lysed in 0.06 M HCl and 1% CHAPS for 15 min at 65° C. while shaking. The amount of 2-DG in the lysate was determined by means of enzyme-coupled assay. For this 6.4 U/mL glucose-6-phosphate dehydrogenase, 0.2 U/mL diaphorase, 0.1 mM NADP^+ and 0.025 mg/mL resazurin were added to the lysates. Resorufin fluorescence was determined as a measure of 2-DG uptake at ex/em 535/590 nm with a Tecan Infinite M200 plate reader (Tecan). Blank values were subtracted from all readings and values were normalized to the DMSO control.

GLUT1 = target: T3, GLUT1 (Homo sapiens, UniProt P11166); assay: GLUT1 transporter activity assay (2-DG uptake) in DLD1 cells; details: DLD1 cell line; read-out: GLUT1 inhibitory activity (IC50)
T3 construct: host or cells: DLD-1 (DLD1) cells
T3 sequence (P11166 1-492): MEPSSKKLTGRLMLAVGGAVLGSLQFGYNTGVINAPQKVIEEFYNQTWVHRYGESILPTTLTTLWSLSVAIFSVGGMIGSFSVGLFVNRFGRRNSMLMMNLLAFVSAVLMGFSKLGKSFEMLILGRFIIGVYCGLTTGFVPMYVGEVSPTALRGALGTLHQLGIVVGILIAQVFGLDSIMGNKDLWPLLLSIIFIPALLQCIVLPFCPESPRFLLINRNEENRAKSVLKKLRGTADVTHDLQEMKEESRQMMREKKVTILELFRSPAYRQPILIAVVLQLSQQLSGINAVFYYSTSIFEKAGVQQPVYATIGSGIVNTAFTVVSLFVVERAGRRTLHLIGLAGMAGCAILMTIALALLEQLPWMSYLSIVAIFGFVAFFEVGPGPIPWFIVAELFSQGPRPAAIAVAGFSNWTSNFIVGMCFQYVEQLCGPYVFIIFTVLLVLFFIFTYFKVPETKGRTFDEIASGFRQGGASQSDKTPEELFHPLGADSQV
Source text: as §1, §2, §3, §4

GLUT2 = target: T4, GLUT2 (Homo sapiens, UniProt P11168); assay: GLUT2 transporter activity assay in CHO-hGLUT2 cells (indirect, intracellular ATP levels); details: CHO-hGLUT2 cell line; read-out: GLUT2 inhibitory activity (IC50)
T4 sequence (P11168 1-524): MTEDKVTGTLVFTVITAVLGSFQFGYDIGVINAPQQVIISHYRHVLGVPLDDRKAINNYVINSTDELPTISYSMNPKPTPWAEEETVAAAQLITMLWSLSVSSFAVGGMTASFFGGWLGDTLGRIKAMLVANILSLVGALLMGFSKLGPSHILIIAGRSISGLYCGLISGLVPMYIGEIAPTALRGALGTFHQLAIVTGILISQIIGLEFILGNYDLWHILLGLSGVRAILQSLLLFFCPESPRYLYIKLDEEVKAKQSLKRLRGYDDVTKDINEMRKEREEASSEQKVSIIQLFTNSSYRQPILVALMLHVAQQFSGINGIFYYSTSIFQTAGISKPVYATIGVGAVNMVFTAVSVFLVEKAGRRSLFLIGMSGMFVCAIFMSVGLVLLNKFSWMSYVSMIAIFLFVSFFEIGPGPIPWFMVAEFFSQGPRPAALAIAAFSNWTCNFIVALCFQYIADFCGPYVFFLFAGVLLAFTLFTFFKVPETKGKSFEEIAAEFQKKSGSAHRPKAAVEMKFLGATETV
Source text: as §1, §2
Example 8-3: Indirect Measurement of GLUT2 (SLC2A2) Activity by Quantification of Intracellular ATP Levels
A combination of small-molecule inhibitors of mitochondrial electron transport chain and glucose catabolism synergistically suppress ATP production and impair cellular viability (Ulanovskaya et al., 2008, 2011; Liu, et al. 2001). We therefore used CHOK1 cells overexpressing SLC2A2 (CHOK1-SLC2A2) in combination with an oxidative phosphorylation inhibitor (Rotenon) to identify GLUT2 inhibitors. CHOK1-SLC2A2 cells were purchased from creative biogene (catNo: CSC-SC014484) and maintained in RPMI1640 supplemented with 10% FBS and 2 mM L-Glutamine. For the Glut2-ATP-Assay, 7,500 cells were seeded in black, clear bottom 384-well plates directly in glucose- and phenolred-free RPMI1640 medium supplemented with 1% FCS and 2 mM L-glutamine and cultured overnight to reduce intracellular ATP levels. Next day, cells were washed and incubated with […] and compounds or DMSO and 2.5 mM fructose in glucose- and phenolred-free RPMI1640 medium for 40 min. The CellTiter-Glo® Luminescence Viability Assay from Promega was used to measure ATP levels. Luminescence was measured with a Victor Multilabel plate reader (Perkin Elmer). Blank values were subtracted from all readings and values were normalized to the DMSO control.

Compound	IC50 (GLUT4)	IC50 (GLUT3)	IC50 (HCT116 cells)	IC50 (GLUT1)	IC50 (GLUT2)
Cc1ccc(CCNC(=O)c2cccc(N3C(=O)NC4CC3(C)Oc3c(OCc5ccc([N+](=O)[O-])cc5)cccc34)c2)cc1 (stereo not shown) [Compound A03, 3-(2-Methyl-10-((4-nitrobenzyl)oxy)-4-oxo-5,6-dihydro-2H-2,6-methanobenzo[g][1,3,5]oxadiazocin-3(4H)-yl)-N-(4-methylphenethyl)benzamide]	4 to 10 µM	0.3 to 1 µM	≤ 5 µM	0.3 to 1 µM	–
Cc1ccc(CCNC(=O)c2cccc(N3C(=O)NC4CC3(C)Oc3c(OCc5cccc(Cl)c5)cccc34)c2)cc1 (stereo not shown) [Compound A04, 3-(10-((3-Chlorobenzyl)oxy)-2-methyl-4-oxo-5,6-dihydro-2H-2,6-methanobenzo[g][1,3,5]oxadiazocin-3(4H)-yl)-N-(4-methylphenethyl)benzamide]	> 25 µM	0.3 to 1 µM	≤ 5 µM	0.3 to 1 µM	–
Cc1ccc(CCNC(=O)c2cccc(N3C(=O)NC4CC3(C)Oc3c(OCc5ccc(C(C)(C)C)cc5)cccc34)c2)cc1 (stereo not shown) [Compound A06, 3-(10-((4-(tert-Butyl)benzyl)oxy)-2-methyl-4-oxo-5,6-dihydro-2H-2,6-methanobenzo[g][1,3,5]oxadiazocin-3(4H)-yl)-N-(4-methylphenethyl)benzamide]	–	–	≤ 5 µM	–	–
COC(=O)c1cccc(N2C(=O)NC3CC2(C)Oc2c(OCc4ccccc4)cccc23)c1 (stereo not shown) [Compound A37, methyl 3-(10-(benzyloxy)-2-methyl-4-oxo-5,6-dihydro-2H-2,6-methanobenzo[g][1,3,5]oxadiazocin-3(4H)-yl)benzoate]	10 to 25 µM	1 to 4 µM	–	1 to 4 µM	> 25 µM

Now from value to molecule:

IC50 (GLUT4)	IC50 (GLUT3)	IC50 (HCT116 cells)	IC50 (GLUT1)	IC50 (GLUT2)	Compound
> 25 µM	1 to 4 µM	≤ 5 µM	1 to 4 µM	–	Cc1ccc(CCNC(=O)c2cccc(N3C(=O)NC4CC3(C)Oc3c(OCc5ccccc5C)cccc34)c2)cc1 (stereo not shown) [Compound A02, 3-(2-Methyl-10-((2-methylbenzyl)oxy)-4-oxo-5,6-dihydro-2H-2,6-methanobenzo[g][1,3,5]oxadiazocin-3(4H)-yl)-N-(4-methylphenethyl)benzamide]
10 to 25 µM	0.3 to 1 µM	–	0.3 to 1 µM	> 25 µM	Cc1ccc(OCCNC(=O)c2cccc(N3C(=O)NC4CC3(C)Oc3c(OCc5ccccc5)cccc34)c2)cc1 (stereo not shown) [Compound A35, 3-(10-(benzyloxy)-2-methyl-4-oxo-5,6-dihydro-2H-2,6-methanobenzo[g][1,3,5]oxadiazocin-3(4H)-yl)-N-(2-(4-methylphenoxy)ethyl)benzamide]
4 to 10 µM	0.3 to 1 µM	–	0.3 to 1 µM	> 25 µM	CC12CC(NC(=O)N1c1cccc(C(=O)NCCc3ccccc3)c1)c1cccc(OCc3ccccc3)c1O2 (stereo not shown) [Compound A36, 3-(10-(benzyloxy)-2-methyl-4-oxo-5,6-dihydro-2H-2,6-methanobenzo[g][1,3,5]oxadiazocin-3(4H)-yl)-N-(phenethyl)benzamide]
